We go through two compounds from article doi:10.1101/471615v1 (biorxiv, 2018).

The target in this assay is T1, GAK (InCELL Pulse) (Homo sapiens, UniProt O14976).
T1 sequence (O14976 2-1311): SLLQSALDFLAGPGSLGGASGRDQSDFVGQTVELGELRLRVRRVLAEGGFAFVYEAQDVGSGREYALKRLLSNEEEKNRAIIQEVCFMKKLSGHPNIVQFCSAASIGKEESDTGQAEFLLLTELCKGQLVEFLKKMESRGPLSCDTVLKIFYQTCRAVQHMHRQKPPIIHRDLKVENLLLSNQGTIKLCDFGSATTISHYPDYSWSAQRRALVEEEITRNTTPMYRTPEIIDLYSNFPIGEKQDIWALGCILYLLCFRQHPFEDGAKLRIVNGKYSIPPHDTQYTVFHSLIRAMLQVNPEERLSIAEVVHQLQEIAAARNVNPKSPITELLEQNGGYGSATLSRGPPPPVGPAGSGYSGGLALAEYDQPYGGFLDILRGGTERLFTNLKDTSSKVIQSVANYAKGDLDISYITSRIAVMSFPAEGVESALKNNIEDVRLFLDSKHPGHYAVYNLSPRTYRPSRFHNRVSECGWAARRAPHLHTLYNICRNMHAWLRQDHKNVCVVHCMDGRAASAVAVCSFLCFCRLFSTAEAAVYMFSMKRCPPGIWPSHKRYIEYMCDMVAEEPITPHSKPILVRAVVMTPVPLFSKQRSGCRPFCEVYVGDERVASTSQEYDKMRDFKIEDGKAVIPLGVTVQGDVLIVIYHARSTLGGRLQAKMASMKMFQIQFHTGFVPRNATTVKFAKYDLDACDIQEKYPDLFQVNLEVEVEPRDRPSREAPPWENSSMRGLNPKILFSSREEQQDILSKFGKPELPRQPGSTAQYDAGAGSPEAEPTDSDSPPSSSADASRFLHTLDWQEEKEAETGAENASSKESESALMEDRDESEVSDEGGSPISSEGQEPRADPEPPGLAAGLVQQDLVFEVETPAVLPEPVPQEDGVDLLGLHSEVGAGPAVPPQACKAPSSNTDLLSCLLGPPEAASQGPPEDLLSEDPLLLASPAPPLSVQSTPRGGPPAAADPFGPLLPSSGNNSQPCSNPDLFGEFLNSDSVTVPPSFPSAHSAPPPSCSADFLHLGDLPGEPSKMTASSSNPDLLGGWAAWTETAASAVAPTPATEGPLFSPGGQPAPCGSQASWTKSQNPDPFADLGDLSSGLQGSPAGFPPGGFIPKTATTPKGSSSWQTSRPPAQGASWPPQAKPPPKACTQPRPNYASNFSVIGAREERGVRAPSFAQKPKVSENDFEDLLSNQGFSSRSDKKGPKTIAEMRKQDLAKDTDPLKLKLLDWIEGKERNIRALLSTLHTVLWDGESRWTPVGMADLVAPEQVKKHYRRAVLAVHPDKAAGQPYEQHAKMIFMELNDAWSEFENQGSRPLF
The experiment in a line: InCELL Pulse cellular target engagement. In kind it is cell-based. Conditions: in cells.

Turning to `COc1cc2nccc(Nc3cc(OC)c(OC)c(OC)c3)c2cc1OC` [compound 15, 6,7-disubstituted methoxy (15)], half-maximal inhibition (IC50) required 0.045 µM. As to `COc1cc(Nc2ncnc3ccc(C(F)(F)F)cc23)cc(OC)c1OC` [compound 19, quinazoline (19)], the IC50 – broadly, the concentration at which inhibition is half-maximal – turned out to be 6.7 µM.
